The values below come from the supplement of paper PMC10307832.

Common to all, as to experiment: relative viability (nuclei count vs DMSO), 5 days (fraction); higher = more cells survive
Compound in experiment [1]: CC1=C(N=C(N=C1N)[C@H](CC(=O)N)NC[C@@H](C(=O)N)N)C(=O)N[C@@H]([C@H](C2=CN=CN2)OC3C(C(C(C(O3)CO)O)O)OC4C(C(C(C(O4)CO)O)OC(=O)N)O)C(=O)N[C@H](C)[C@H]([C@H](C)C(=O)N[C@@H]([C@@H](C)O)C(=O)NCCC5=NC(=CS5)C6=NC(=CS6)C(=O)NCCC[S+](C)C)O [Bleomycin] + O=C(c1cc(Cc2n[nH]c(=O)c3ccccc23)ccc1F)N1CCN(C(=O)C2CC2)CC1 [Olaparib] (partner 8 µM)
Conditions: main component drawn. In outline: (§1)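 Lung cancer cell lines in 1536-well plates were dosed by pin tool the day after seeding, either with one drug alone or with a fixed anchor-drug dose plus five library-drug doses (not always all listed) in √10 steps. After 5 days, cells were fixed and their nuclei stained in one step (final 0.05% Triton X-100, 1% formaldehyde, 1 ug/ml Hoechst), then counted on 4× images. Relative viability is the nuclei count in treated wells divided by that in vehicle wells. Values are medians of duplicate plates.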

Compound in experiment [2]: COc1cc([C@@H]2c3cc4c(cc3[C@@H](O[C@@H]3O[C@@H]5CO[C@@H](C)O[C@H]5[C@H](O)[C@H]3O)[C@H]3COC(=O)[C@H]23)OCO4)cc(OC)c1O [Etoposide] + CC(=O)Nc1cccc(-n2c(=O)n(C3CC3)c(=O)c3c(Nc4ccc(I)cc4F)n(C)c(=O)c(C)c32)c1 [Trametinib] (partner 0.02 µM)
In outline:
as §1

Compound in experiment [3]: COc1cc([C@@H]2c3cc4c(cc3[C@@H](O[C@@H]3O[C@@H]5CO[C@@H](C)O[C@H]5[C@H](O)[C@H]3O)[C@H]3COC(=O)[C@H]23)OCO4)cc(OC)c1O [Etoposide] + COc1cccc2cc(-c3nc([C@H]4CC[C@H](C(=O)O)CC4)n4ncnc(N)c34)[nH]c12 [OSI-027] (partner 0.5 µM)
The gist of the method: as §1

Compound in experiment [4]: COc1cc([C@@H]2c3cc4c(cc3[C@@H](O[C@@H]3O[C@@H]5CO[C@@H](C)O[C@H]5[C@H](O)[C@H]3O)[C@H]3COC(=O)[C@H]23)OCO4)cc(OC)c1O [Etoposide] + C[C@@H](Oc1cc(-c2cnn(C3CCNCC3)c2)cnc1N)c1c(Cl)ccc(F)c1Cl [Crizotinib] (partner 1 µM)
The gist of the method:
as §1

With NCI-H596, the relative viability in experiment [1] (first compound 0.01 µM) worked out at 0.599; in experiment [1] (first compound 0.03162 µM), 0.515; in experiment [1] (first compound 0.1 µM), 0.515; in experiment [1] (first compound 0.3162 µM), 0.371; in experiment [1] (first compound 1 µM), 0.438; in experiment [2] (first compound 0.01 µM) it was 0.7. In addition, the relative viability is 0.965 in experiment [2] (first compound 0.03162 µM); 0.772 in experiment [2] (first compound 0.1 µM); 0.727 in experiment [2] (first compound 0.3162 µM); 0.646 in experiment [2] (first compound 1 µM); 0.695 in experiment [3] (first compound 0.01 µM); 0.831 in experiment [3] (first compound 0.03162 µM). In addition, the relative viability was found to be 0.467 in experiment [3] (first compound 0.1 µM); 0.56 in experiment [3] (first compound 0.3162 µM); 0.546 in experiment [3] (first compound 1 µM); 1.02 in experiment [4] (first compound 0.01 µM); 0.96 in experiment [4] (first compound 0.03162 µM); 0.808 in experiment [4] (first compound 0.3162 µM). Besides, in experiment [4] (first compound 1 µM), the relative viability amounted to 0.681.

With SK-LU-1, the relative viability in experiment [1] (first compound 0.01 µM) was determined as 0.38; in experiment [1] (first compound 0.03162 µM) it was 0.436; in experiment [1] (first compound 0.1 µM), 0.397; in experiment [1] (first compound 0.3162 µM), 0.307; in experiment [1] (first compound 1 µM), 0.29; in experiment [2] (first compound 0.01 µM) it was 0.446. In addition, the relative viability is 0.411 in experiment [2] (first compound 0.03162 µM); 0.394 in experiment [2] (first compound 0.1 µM); 0.258 in experiment [2] (first compound 0.3162 µM); 0.236 in experiment [2] (first compound 1 µM); 0.358 in experiment [3] (first compound 0.01 µM); 0.373 in experiment [3] (first compound 0.03162 µM). The relative viability stood at 0.251 in experiment [3] (first compound 0.1 µM); 0.174 in experiment [3] (first compound 0.3162 µM); 0.172 in experiment [3] (first compound 1 µM); 0.778 in experiment [4] (first compound 0.01 µM); 0.902 in experiment [4] (first compound 0.03162 µM); 0.614 in experiment [4] (first compound 0.1 µM). For the same cell line, the relative viability in experiment [4] (first compound 0.3162 µM) stood at 0.387; in experiment [4] (first compound 1 µM), 0.327.

With A-427, the relative viability was 0.58 in experiment [1] (first compound 0.01 µM); 0.566 in experiment [1] (first compound 0.03162 µM); 0.455 in experiment [1] (first compound 0.1 µM); 0.274 in experiment [1] (first compound 0.3162 µM); 0.24 in experiment [1] (first compound 1 µM); 0.695 in experiment [2] (first compound 0.01 µM). In addition, the relative viability turned out to be 0.812 in experiment [2] (first compound 0.03162 µM); 0.621 in experiment [2] (first compound 0.1 µM); 0.47 in experiment [2] (first compound 0.3162 µM); 0.296 in experiment [2] (first compound 1 µM); 0.472 in experiment [3] (first compound 0.01 µM); 0.486 in experiment [3] (first compound 0.03162 µM). Besides, the relative viability in experiment [3] (first compound 0.1 µM) turned out to be 0.43; in experiment [3] (first compound 0.3162 µM), 0.396; in experiment [3] (first compound 1 µM), 0.212; in experiment [4] (first compound 0.01 µM) it was 0.875; in experiment [4] (first compound 0.03162 µM), 0.837; in experiment [4] (first compound 0.1 µM), 0.717. The relative viability in experiment [4] (first compound 0.3162 µM) was determined as 0.263; in experiment [4] (first compound 1 µM), 0.153.

For the cell line NCI-H460, the relative viability is 0.212 in experiment [1] (first compound 0.01 µM); 0.159 in experiment [1] (first compound 0.03162 µM); 0.12 in experiment [1] (first compound 0.1 µM); 0.0368 in experiment [1] (first compound 0.3162 µM); 0.073 in experiment [1] (first compound 1 µM); 0.173 in experiment [2] (first compound 0.01 µM). For the same cell line, the relative viability worked out at 0.14 in experiment [2] (first compound 0.03162 µM); 0.0869 in experiment [2] (first compound 0.1 µM); 0.0497 in experiment [2] (first compound 0.3162 µM); 0.021 in experiment [2] (first compound 1 µM); 0.601 in experiment [3] (first compound 0.01 µM); 0.731 in experiment [3] (first compound 0.03162 µM). Also, the relative viability is 0.415 in experiment [3] (first compound 0.1 µM); 0.0887 in experiment [3] (first compound 0.3162 µM); 0.0402 in experiment [3] (first compound 1 µM); 0.708 in experiment [4] (first compound 0.01 µM); 0.498 in experiment [4] (first compound 0.03162 µM); 0.476 in experiment [4] (first compound 0.1 µM). Besides, the relative viability came out at 0.0396 in experiment [4] (first compound 0.3162 µM) and 0.0142 in experiment [4] (first compound 1 µM).

Turning to NCI-H1703, the relative viability worked out at 0.55 in experiment [1] (first compound 0.01 µM); 0.508 in experiment [1] (first compound 0.03162 µM); 0.289 in experiment [1] (first compound 0.1 µM); 0.309 in experiment [1] (first compound 0.3162 µM); 0.166 in experiment [1] (first compound 1 µM); 0.521 in experiment [4] (first compound 0.03162 µM). Also, the relative viability was determined as 0.584 in experiment [4] (first compound 0.1 µM), 0.501 in experiment [4] (first compound 0.3162 µM) and 0.162 in experiment [4] (first compound 1 µM).

Take NCI-H1792: the relative viability is 0.34 in experiment [1] (first compound 0.01 µM); 0.447 in experiment [1] (first compound 0.03162 µM); 0.487 in experiment [1] (first compound 0.1 µM); 0.183 in experiment [1] (first compound 0.3162 µM); 0.11 in experiment [1] (first compound 1 µM); 0.47 in experiment [2] (first compound 0.01 µM). In addition, the relative viability in experiment [2] (first compound 0.03162 µM) was 0.5; in experiment [2] (first compound 0.3162 µM), 0.371; in experiment [2] (first compound 1 µM) it was 0.335; in experiment [3] (first compound 0.01 µM), 0.509; in experiment [3] (first compound 0.03162 µM) it was 0.699; in experiment [3] (first compound 0.1 µM), 0.51. The relative viability in experiment [3] (first compound 0.3162 µM) was determined as 0.696; in experiment [3] (first compound 1 µM), 0.537; in experiment [4] (first compound 0.01 µM) it was 1.02; in experiment [4] (first compound 0.03162 µM) it was 0.913; in experiment [4] (first compound 0.1 µM), 0.825; in experiment [4] (first compound 0.3162 µM) it was 0.831. In addition, the relative viability in experiment [4] (first compound 1 µM) is 0.623.

Turning to Calu-6, the relative viability was 0.375 in experiment [1] (first compound 0.01 µM); 0.343 in experiment [1] (first compound 0.03162 µM); 0.254 in experiment [1] (first compound 0.1 µM); 0.127 in experiment [1] (first compound 0.3162 µM); 0.137 in experiment [1] (first compound 1 µM); 0.751 in experiment [4] (first compound 0.01 µM). Besides, the relative viability in experiment [4] (first compound 0.03162 µM) was 0.862; in experiment [4] (first compound 0.1 µM) it was 0.964; in experiment [4] (first compound 0.3162 µM) it was 0.575; in experiment [4] (first compound 1 µM) it was 0.362.

Take SW 1573: the relative viability in experiment [1] (first compound 0.01 µM) is 0.291; in experiment [1] (first compound 0.03162 µM), 0.336; in experiment [1] (first compound 0.1 µM), 0.292; in experiment [1] (first compound 0.3162 µM), 0.153; in experiment [1] (first compound 1 µM), 0.123; in experiment [2] (first compound 0.01 µM) it was 0.609. Moreover, the relative viability in experiment [2] (first compound 0.03162 µM) was 0.548; in experiment [2] (first compound 0.1 µM), 0.436; in experiment [2] (first compound 0.3162 µM), 0.219; in experiment [2] (first compound 1 µM) it was 0.14; in experiment [3] (first compound 0.01 µM) it was 0.707; in experiment [3] (first compound 0.03162 µM), 0.593. For the same cell line, the relative viability amounted to 0.277 in experiment [3] (first compound 0.1 µM); 0.265 in experiment [3] (first compound 0.3162 µM); 0.116 in experiment [3] (first compound 1 µM); 0.634 in experiment [4] (first compound 0.01 µM); 0.618 in experiment [4] (first compound 0.03162 µM); 0.595 in experiment [4] (first compound 0.1 µM). Further, the values for the relative viability in experiment [4] (first compound 0.3162 µM) and in experiment [4] (first compound 1 µM) were 0.29 and 0.198, respectively.
